Data reported in the CheMixHub viscosity set.
± gives the uncertainty stated by the source.

Test: xn = mol fraction of the nth substance listed

## CCCCCCCC + CCCCO
298.15 K, 101.33 kPa, x1 = 0.0832
  viscosity: 2.013 ± 0.013 mPa·s
298.15 K, 101.33 kPa, x1 = 0.1173
  viscosity: 1.84 ± 0.012 mPa·s
298.15 K, 101.33 kPa, x1 = 0.1519
  viscosity: 1.681 ± 0.011 mPa·s
298.15 K, 101.33 kPa, x1 = 0.2113
  viscosity: 1.443 ± 0.009 mPa·s
298.15 K, 101.33 kPa, x1 = 0.304
  viscosity: 1.152 ± 0.008 mPa·s
298.15 K, 101.33 kPa, x1 = 0.3599
  viscosity: 1.017 ± 0.007 mPa·s
298.15 K, 101.33 kPa, x1 = 0.4942
  viscosity: 0.788 ± 0.006 mPa·s
298.15 K, 101.33 kPa, x1 = 0.6053
  viscosity: 0.676 ± 0.005 mPa·s
298.15 K, 101.33 kPa, x1 = 0.7044
  viscosity: 0.615 ± 0.005 mPa·s
298.15 K, 101.33 kPa, x1 = 0.8459
  viscosity: 0.555 ± 0.004 mPa·s

## O=[N+]([O-])c1ccccc1 + COCCO
298.15 K, 101 kPa, x1 = 0.0511
  viscosity: 1.561 ± 0.012 mPa·s
298.15 K, 101 kPa, x1 = 0.101
  viscosity: 1.58 ± 0.012 mPa·s
298.15 K, 101 kPa, x1 = 0.2028
  viscosity: 1.624 ± 0.013 mPa·s
298.15 K, 101 kPa, x1 = 0.3038
  viscosity: 1.673 ± 0.013 mPa·s
298.15 K, 101 kPa, x1 = 0.4004
  viscosity: 1.72 ± 0.013 mPa·s
298.15 K, 101 kPa, x1 = 0.4502
  viscosity: 1.743 ± 0.013 mPa·s
298.15 K, 101 kPa, x1 = 0.5003
  viscosity: 1.764 ± 0.014 mPa·s
298.15 K, 101 kPa, x1 = 0.5524
  viscosity: 1.785 ± 0.014 mPa·s
298.15 K, 101 kPa, x1 = 0.6001
  viscosity: 1.801 ± 0.014 mPa·s
298.15 K, 101 kPa, x1 = 0.6981
  viscosity: 1.829 ± 0.014 mPa·s
298.15 K, 101 kPa, x1 = 0.7856
  viscosity: 1.847 ± 0.014 mPa·s
298.15 K, 101 kPa, x1 = 0.8931
  viscosity: 1.85 ± 0.014 mPa·s
298.15 K, 101 kPa, x1 = 0.9407
  viscosity: 1.839 ± 0.014 mPa·s
303.15 K, 101.33 kPa, x2 = 0.132
  viscosity: 1.553 ± 0.019 mPa·s
303.15 K, 101.33 kPa, x2 = 0.2148
  viscosity: 1.514 ± 0.019 mPa·s
303.15 K, 101.33 kPa, x2 = 0.2725
  viscosity: 1.49 ± 0.018 mPa·s
303.15 K, 101.33 kPa, x2 = 0.3929
  viscosity: 1.453 ± 0.018 mPa·s
303.15 K, 101.33 kPa, x2 = 0.5243
  viscosity: 1.428 ± 0.018 mPa·s
303.15 K, 101.33 kPa, x2 = 0.5584
  viscosity: 1.425 ± 0.018 mPa·s
303.15 K, 101.33 kPa, x2 = 0.7423
  viscosity: 1.409 ± 0.017 mPa·s
303.15 K, 101.33 kPa, x2 = 0.8512
  viscosity: 1.397 ± 0.017 mPa·s
303.15 K, 101.33 kPa, x2 = 0.9147
  viscosity: 1.391 ± 0.017 mPa·s

## CCCCCCCC + CCCCCCCCCC
297.95 K, 101 kPa, x1 = 0.1384
  viscosity: 0.8136 ± 0.037 mPa·s
297.95 K, 101 kPa, x1 = 0.2144
  viscosity: 0.7783 ± 0.035 mPa·s
297.95 K, 101 kPa, x1 = 0.3015
  viscosity: 0.7465 ± 0.034 mPa·s
297.95 K, 101 kPa, x1 = 0.3894
  viscosity: 0.6993 ± 0.032 mPa·s
297.95 K, 101 kPa, x1 = 0.452
  viscosity: 0.6767 ± 0.031 mPa·s
297.95 K, 101 kPa, x1 = 0.601
  viscosity: 0.6312 ± 0.029 mPa·s
297.95 K, 101 kPa, x1 = 0.6988
  viscosity: 0.5898 ± 0.028 mPa·s
297.95 K, 101 kPa, x1 = 0.8208
  viscosity: 0.5543 ± 0.026 mPa·s
297.95 K, 101 kPa, x1 = 0.8858
  viscosity: 0.5327 ± 0.025 mPa·s
298.15 K, 101.33 kPa, x1 = 0.1059
  viscosity: 0.8166 ± 0.011 mPa·s
298.15 K, 101.33 kPa, x1 = 0.2142
  viscosity: 0.7747 ± 0.01 mPa·s
298.15 K, 101.33 kPa, x1 = 0.3038
  viscosity: 0.7382 ± 0.0098 mPa·s
298.15 K, 101.33 kPa, x1 = 0.4052
  viscosity: 0.6937 ± 0.0093 mPa·s
298.15 K, 101.33 kPa, x1 = 0.5057
  viscosity: 0.6694 ± 0.0091 mPa·s
298.15 K, 101.33 kPa, x1 = 0.6061
  viscosity: 0.6305 ± 0.0086 mPa·s
298.15 K, 101.33 kPa, x1 = 0.7032
  viscosity: 0.6018 ± 0.0083 mPa·s
298.15 K, 101.33 kPa, x1 = 0.8002
  viscosity: 0.5722 ± 0.008 mPa·s
298.15 K, 101.33 kPa, x1 = 0.9058
  viscosity: 0.5366 ± 0.0076 mPa·s
313.05 K, 101 kPa, x1 = 0.1384
  viscosity: 0.6803 ± 0.031 mPa·s
313.05 K, 101 kPa, x1 = 0.2144
  viscosity: 0.6439 ± 0.03 mPa·s
313.05 K, 101 kPa, x1 = 0.3015
  viscosity: 0.6261 ± 0.029 mPa·s
313.05 K, 101 kPa, x1 = 0.3894
  viscosity: 0.5975 ± 0.028 mPa·s
313.05 K, 101 kPa, x1 = 0.452
  viscosity: 0.5817 ± 0.027 mPa·s
313.05 K, 101 kPa, x1 = 0.601
  viscosity: 0.5417 ± 0.026 mPa·s
313.05 K, 101 kPa, x1 = 0.6988
  viscosity: 0.5129 ± 0.025 mPa·s
313.05 K, 101 kPa, x1 = 0.8208
  viscosity: 0.4761 ± 0.023 mPa·s
313.05 K, 101 kPa, x1 = 0.8858
  viscosity: 0.4643 ± 0.023 mPa·s

## CCCCCCCCCCCCCC[P+](CCCCCC)(CCCCCC)CCCCCC.N#C[N-]C#N + O
303.11 K, 101 kPa, x2 = 0.198
  viscosity: 284.5 ± 14 mPa·s

## CCI + CCOC(C)=O
298.15 K, 101 kPa, x2 = 0.7859
  viscosity: 0.462 ± 0.006 mPa·s
